Here are results for two compounds from PMC9106035, “Synthesis, X-ray Structure and Biological Studies of New Self-Assembled Cu(II) Complexes Derived from s-Triazine Schiff Base Ligand” (Molecules, 2022).

Holding throughout (assay type): cell-based
The test system of test [1] is A. fumigatus (RCMB 002008). Nature of the test: Minimum Inhibitory Concentration (MIC). Here is the method:
(§1) Method S2: Antimi crobial studies a) Tested pathogenic microbes
(§2) The antibacterial a ctivity of the studied ligands and their Cu(II) complexes were evaluated against two Gram positive bacteria ((S. aureus (ATCC 25923) and B. […]
(§3) 0.5). In case of fungi A. fumigatus (RCMB 002008) and C. albicans (RCMB 005003(1) ATCC 10231), the used medium in antagonistic activity against tested fungi is Potato Dextrose Agar, where Fluconazole was used standard antifungal agent. […]
(§4) c) Minimum Inhibitory Concentration (MIC)
(§5) Different dilutions of the compounds are inoculat ed with tested pathogenic microbes.
(§6) After incubation period of 96 well microplate, the results are meas ured using microplate reader. To determine at what level the MIC endpoint is established; subculture of test samples at different concentrati ons occurred in nutrient agar plates.

Test [2] has as its system C. albicans (RCMB 005003(1) ATCC 10231). Nature of the test: Minimum Inhibitory Concentration (MIC). Here is the method: as §1, §2, §3, §4, §5, §6
Test [3] relates to A. fumigatus (RCMB 002008). As to the kind of experiment: Agar well diffusion, inhibition zone. Particulars: 10 mg/mL of the tested compounds. Here is the method: (§7) The antimicrobial activity of the free ligands and the corresponding Cu(II) complexes was determined against different categories of microbes (Table 5). All inhibition zones were determined at 10 mg/mL of the tested compounds. […] The largest inhibition zones were found for B. subtilis (25 mm), which is very close to the standard Gentamycin (26 mm). […] Complex 1 evidenced antimicrobial activity against all microbes except C. albicans.
as §1
(§8) The antibacterial a ctivity of the studied ligands and their Cu(II) complexes were evaluated against two Gram positive bacteria ((S. aureus (ATCC 25923) and B. subtilis (RCMB015(1)NRR LB-543)), two Gram negatvie bacteria ((E. coli (ATCC 25922) and P. vulgaris (RCMB 004(1)ATCC 13315)) and two fungi ((A. fumigatus […]
was used as standard antibacterial agent. The samples maintained in Brain heart infusion (BHI) at 20 °C; […] of each stock–c ulture was added to 3 mL of BHI […]
broth. […]
(§9) 0.5). In case of fungi A. fumigatus (RCMB 002008) and C. albicans (RCMB 005003(1) ATCC 10231), the used medium in antagonistic activity against tested fungi is Potato Dextrose Agar, where Fluconazole was used standard antifungal agent. b) Agar well diffusion method
(§10) Synthetic compounds were prepared at concentration 10 mg/mL dissolved in DMSO as stock solutions. Preparation of sterilized Mueller Hinton agar plates seeded with tested pathogenic b acteria occurred. The wells are done by sterilized cork borer in size […]
(§11) comparably with DMSO as control. The plates were incubated at 37°C for 24 h. after incubation period; antimicrobial activity was d etermined by inhibition zones. […]
Background: A growth-free zone around the sample is the usual read-out of agar diffusion tests.

In test [4] the test system is P. vulgaris (RCMB 004(1)ATCC 13315). As to the kind of experiment: Agar well diffusion, inhibition zone. To be noted: 10 mg/mL of the tested compounds. Here is the method:
as §7, §1, §8
(§12) was used as standard antibacterial agent. The samples maintained in Brain heart infusion (BHI) at 20 °C; […] of each stock–c ulture was added to 3 mL of BHI broth. Overnight cultures were kept for 24 h at 37 °C ± 1 °C and the purity of cultures was checked aft er 24 h of incubation. […]
(§13) b) Agar well diffusion method
as §10, §11

Test [5] has as its system S. aureus (ATCC 25923). As to the kind of experiment: Agar well diffusion, inhibition zone. Particulars: 10 mg/mL of the tested compounds. Here is the method: as §7, §1, §8, §12, §13, §10, §11
The subject of test [6] is E. coli (ATCC 25922). As to the kind of experiment: Agar well diffusion, inhibition zone. Particulars: 10 mg/mL of the tested compounds. Here is the method: as §7, §1, §8, §12, §13, §10, §11
The test system of test [7] is B. subtilis (RCMB015(1)NRR LB-543). As to the kind of experiment: Agar well diffusion, inhibition zone. To be noted: 10 mg/mL of the tested compounds. Here is the method:
as §7, §1, §8, §12, §13, §10, §11

The subject of test [8] is C. albicans (RCMB 005003(1) ATCC 10231). Nature of the test: Agar well diffusion, inhibition zone. To be noted: 10 mg/mL of the tested compounds. Here is the method:
as §7, §1, §2, §9, §10, §11

For test [9], the system named is P. vulgaris (RCMB 004(1)ATCC 13315). Nature of the test: Minimum Inhibitory Concentration (MIC). Here is the method: as §1, §8, §12, §4, §5, §6
For test [10], the system named is S. aureus (ATCC 25923). As to the kind of experiment: Minimum Inhibitory Concentration (MIC). Here is the method: as §1, §8, §12, §4, §5, §6
In test [11] the test system is E. coli (ATCC 25922). As to the kind of experiment: Minimum Inhibitory Concentration (MIC). Here is the method:
as §1, §8, §12, §4, §5, §6

For test [12], the system named is B. subtilis (RCMB015(1)NRR LB-543). Nature of the test: Minimum Inhibitory Concentration (MIC). Here is the method: as §1, §8, §12, §4, §5, §6

In general, MIC refers to the lowest concentration found to suppress growth. Take `CC(=NNc1nc(N2CCOCC2)nc(N2CCOCC2)n1)c1ccccc1[O-].CC(=O)[O-].[Cu+2]` [Complex 2, [Cu(DMOT)(CH3COO)]]: the minimal inhibitory concentration (MIC) in [1] was found to be 625 µg/mL; in test [2] it was 5000 µg/mL; in test [9], 1250 µg/mL; against S. aureus (ATCC 25923) [10], 1250 µg/mL; against E. coli (ATCC 25922) [11], 1250 µg/mL; in test [12] it was 39.06 µg/mL. Besides, the Inhibition zone diameters turned out to be 15 mm in test [3]; 15 mm in test [4]; 11 mm in the test on S. aureus (ATCC 25923) [5]; 14 mm with E. coli (ATCC 25922) [6]; 25 mm in test [7]; 10 mm in test [8].

For `CC(=NNc1nc(N2CCOCC2)nc(N2CCOCC2)n1)c1ccccc1[O-].O=[N+]([O-])[O-].[Cu+2]` [Complex 3, [Cu(DMOT)(NO3)]], the Inhibition zone diameters result in test [3] is on record as “no antifungal activity”; in test [4] it was 13 mm; in the test on S. aureus (ATCC 25923) [5] it was 12 mm; in the test with E. coli (ATCC 25922) [6], 15 mm; in [7] it was 24 mm; in test [8] it was “no antifungal activity”. Also, the minimal inhibitory concentration (MIC) is 1250 µg/mL in test [9], 1250 µg/mL in the test with S. aureus (ATCC 25923) [10], 312.5 µg/mL against E. coli (ATCC 25922) [11] and 78.125 µg/mL in test [12].
